Paper PMC11862611 (RSC Medicinal Chemistry, 2025)
Counter-ions that a name gives are not always drawn. Like-named read-outs stand apart in the source and are kept apart here.

Legend:
[1] = test system: L. major PX promastigotes; experiment: on-target growth inhibition, add-back cell line (PX); format: cell-based, Leishmania major
[2] = test system: panel of neurotransmitter receptors; experiment: radioligand displacement assay, whole panel; format: binding, human
Protocol: 4.2.3.6. Radioligand Binding Assay (Supplemental Figure S3)
These assays were run by Eurofins under contract to LifeArc FR095-0011887. A representative protocol describing the human histamine H2 receptor (antagonist radioligand) assay is shown below.12 Cell membrane homogenates (24 µg protein) are incubated for 120 min at 22°C with 0.075 nM [125I]APT in the absence or presence of the test compound in a buffer containing 50 mM Na2HPO4/KH2PO4 (pH […]
7.4) and 0.05% BSA. […] Following

[3] = test system: L. amazonensis GFP promastigotes; experiment: mouse model of L. amazonensis infection (ear, IL dosing); format: in vivo, BALB/c mice; conditions: 1.2 mg kg^−1 IL twice a week for 4 weeks
Protocol: Consequently, we used IL dosing for this experiment. To enable direct comparison with CF, the same treatment regimen (dose of 1.2 mg kg^−1via IL injection twice a week for 4 weeks starting on DPI) was used for both compounds.
A Weight variation of mice during 28 days of treatment. B Progression of lesion thickness over 28 day treatment period. C Representative photographs of the infected ear for each group taken after completion of treatment, D parasite burden was evaluated by LDA on 36 days post infection. […]
In vivo assays were conducted as previously reported 1. Two month old BALB/c female mice, weighing 20 - 25 g and of approximately the same age were used for the study. For infection of mice, stationary phase GFP L. amazonensis promastigotes were collected, washed and suspended in sterile PBS. A volume of 10 μl of sterile PBS containing 2 x 10^6 parasites was injected into the right ear. […]
Infected ear thicknesses were measured once or twice a week with a caliper gauge, and the lesion sizes were expressed as the difference between the thickness of infected and non-infected ear. On day 41 animals were sacrificed and the fluorescence measured (485 - 528 nm) and parasite load quantified using a limiting dilution assay (LDA).
Data on lesion progression were analysed for statistical significance by using the Dunnett test as part of the one-way ANOVA (GraphPad Prism 8 software). […]

L. majIPCS = biological target: T1, L. majIPCS (Leishmania major, UniProt E9AFX2); experiment: inhibition of microsomal enzyme preparation of L. majIPCS; format: biochemical; conditions: for inhibition at 20 µM: read-out: LmjIPCS inhibition % at 20 µM ± SD
T1 construct: made in house
T1 sequence (E9AFX2 1-338): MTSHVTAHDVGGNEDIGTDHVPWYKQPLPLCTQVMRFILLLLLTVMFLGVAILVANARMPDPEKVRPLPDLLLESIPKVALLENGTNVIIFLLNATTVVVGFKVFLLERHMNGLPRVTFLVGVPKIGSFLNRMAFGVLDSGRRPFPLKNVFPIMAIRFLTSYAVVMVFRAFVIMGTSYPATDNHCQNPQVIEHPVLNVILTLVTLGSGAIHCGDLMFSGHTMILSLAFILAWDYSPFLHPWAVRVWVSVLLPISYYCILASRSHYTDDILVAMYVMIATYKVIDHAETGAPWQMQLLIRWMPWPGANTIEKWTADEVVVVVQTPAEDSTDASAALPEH
Excerpt: When tested against microsomal enzyme preparations of L. majIPCS[16] (Fig. 2, Table S1 ^†) the comparisons of pyrrolidine, tetrahydrofuran and cyclopentane derivatives 19, 21–23 supported earlier observations that all active compounds retained a basic nitrogen in the head group.[17] In general, whilst enzyme inhibitory activity was retained in a number of these analogues, much lower activity was observed against promastigote parasites. […] Speculating that this lower activity in promastigote parasite assays reflected a (membrane) transport issue, we then explored the corresponding ether derivative 27. Attempts to prepare this by acid catalysed ether formation failed and ultimately this was achieved through displacement of the corresponding benzylic chloride 25 (Scheme 3).
Fig. 2 Activity of a selection of simple amide and triazole linked CF analogues against a microsomal preparation of L. majIPCS and L. major promastigote parasites, respectively.

[4] = test system: L. major promastigotes (FV1) WT; experiment: anti-promastigote assay, L. major (resazurin); format: cell-based; conditions: Leishmania major
Protocol: 4.2.3.1. Anti-promastigote assays
L. major promastigotes (FV1) WT, PX and Δ LCB2 in Schneider’s insect medium (100 μL at 1 × 106 mL−1) were incubated in 96-well plates with compounds in triplicate (amphotericin B and cycloheximide were used as positive controls, and untreated parasites with 1% DMSO as a negative control) at 26 °C for 48 h.
Resazurin Solution (10 μL) was then added and the plate incubated at 26 °C for 4 h prior to measurement using a fluorescence plate reader (555 - 585 nm). EC50 values were calculated using sigmoidal regression analysis (GraphPad Prism). […]
(§1) well-1 in a 24-well plate with round cover slips and incubated for 24 h at 37 °C and 5% CO2. […]

[5] = test system: L. amazonensis promastigotes; experiment: anti-promastigote assay, L. amazonensis (resazurin); format: cell-based; conditions: Leishmania amazonensis
Protocol: 4.2.3.1. Anti-promastigote assays […]
Protocol 1: L. amazonensis promastigotes in Medium 199 (100 μL at 5 × 105 mL−1) were incubated in 96-well plates with compounds in triplicate (amphotericin B was used as a positive control, and untreated parasites with DMSO as a negative control) at 26 °C for 72 h. Resazurin Solution (10 μL) was then added and the plate incubated at 26 °C for 4 h prior to measurement using a fluorescence plate reader (555 - 585 nm). EC50 values were calculated using sigmoidal regression analysis (GraphPad Prism).
Protocol 2: Same procedure as above with the modification of a 48 h incubation time as opposed to 72 h and Leishmania amazonensis (MHOM/Br/75/JOSEFA) in Schneider’s insect medium in the place of Leishmania amazonensis (MHOM/Br/75/JOSEFA) in Medium 199. […]
as §1

[6] = promastigotes, 48 h, read-out: L. major promastigote EC50
[7] = 48 h, read-out: L. major promastigote EC50
[8] = read-out: L. amaz promastigote EC50
[9] = promastigote parasites (Table 1), read-out: L.mj EC50
[10] = promastigote parasites (Table 1), read-out: L.amaz EC50

## CN1CCC[C@@H]1CCO[C@](C)(c1ccccc1)c1ccc(Cl)cc1 [1a, clemastine fumarate, reference compound]
[1]
  sensitivity in the add-back cell line (PX): Sensitivity was restored
[2]
  binding profile across receptor panel: activity against a broad representation of receptor sub-types
[3]; 35 days post-infection
  lesion growth trends: similar
[3]; LDA 36 days post infection
  parasitaemia (parasite burden by LDA) versus untreated group: statistically significant reduction

## CN1CCC[C@H]1c1cn(C(c2ccccc2)c2ccc(Cl)cc2)nn1 (stereo partly drawn) [14a]
L. majIPCS
  IC50: 14500 nM
L. majIPCS; 20 µM, microsomal preparation
  inhibition at 20 µM: 60.6 ± 9.2%
[4]; [6]
  EC50: > 33000 nM

## CN1CCC[C@H]1CCOC(c1ccccc1)c1ccc(Cl)cc1 (stereo partly drawn) [compound 9]
L. majIPCS
  IC50: 4450 nM
  inhibition at 20 µM: 81.2 ± 10.6%
[4]; [7]
  EC50: 1690 nM

## CN1CCC[C@@H]1CCOC(c1ccccc1)c1ccc(Cl)cc1 (stereo partly drawn) [compound 10]
L. majIPCS
  IC50: 4130 nM
  inhibition at 20 µM: 78.1 ± 9.7%
[4]; [7]
  EC50: 780 nM

## COc1cccc(C(OCC[C@H]2CCCN2C)c2ccccc2)c1 (stereo partly drawn) [compound 31]
[4]; [7]
  EC50: 8440 nM
[5]; [8]
  EC50: 630 nM

## COC[C@H]1CCCN1CCOC(c1ccccc1)c1ccc(Cl)cc1 (stereo partly drawn) [38e]
[4]; read-out: L.mj EC50
  EC50: 14400 nM
[5]; read-out: L.amaz EC50
  EC50: 12400 nM

## OC[C@H]1CCCN1CCOC(c1ccccc1)c1ccc(Cl)cc1 (stereo partly drawn) [38d]
[4]; read-out: L.mj EC50
  EC50: 5880 nM
[5]; read-out: L.amaz EC50
  EC50: 3200 nM

## CN1CCC[C@@H]1CCOC(c1ccccc1)c1ccccc1 [compound 28]
[4]; [7]
  EC50: 8440 nM
[5]; [8]
  EC50: 1170 nM

## CN1CCC[C@@H]1CCO[C@@H](c1ccccc1)c1ccc(Cl)cc1 [compound 37]
[4]; [7]
  EC50: 1330 nM
[5]; [8]
  EC50: 1400 nM

## CN1CCC[C@@H]1CCO[C@H](c1ccccc1)c1ccc(Cl)cc1 [compound 35]
[4]; [7]
  EC50: 130 nM
[5]; [8]
  EC50: 101 nM
[2]
  binding profile across receptor panel: activity against a broad representation of receptor sub-types

## O=C(CC1CCCN1)NC(c1ccccc1)c1ccc(Cl)cc1 (stereo not drawn) [compound 21]
L. majIPCS
  IC50: 6950 nM
L. majIPCS; 20 µM, microsomal preparation
  inhibition at 20 µM: 82.7%
[4]; [6]
  EC50: > 33000 nM

## O=C(CC1CCCC1)NC(c1ccccc1)c1ccc(Cl)cc1 (stereo not drawn) [compound 23]
L. majIPCS; 20 µM, microsomal preparation
  inhibition at 20 µM: -5.4 ± 2.3%

## C[C@@H]1CCCN1CCCO[C@H](c1ccccc1)c1ccc(Cl)cc1 [38m]
[4]; [9]
  EC50: 31 nM
[5]; [10]
  EC50: 42 nM

## CN(C)CCn1ncc2ccc(NC(=O)C(c3ccccc3)c3ccc(Cl)cc3)cc21 (stereo not drawn) [compound 24]
L. majIPCS
  IC50: 2410 nM
L. majIPCS; 20 µM, microsomal preparation
  inhibition at 20 µM: 90.2 ± 2.4%
[4]; [6]
  EC50: > 10000 nM

## O=C(NCC1CCCN1)C(c1ccccc1)c1ccc(Cl)cc1 (stereo not drawn) [compound 19]
L. majIPCS
  IC50: 6900 nM
L. majIPCS; 20 µM, microsomal preparation
  inhibition at 20 µM: 81.2 ± 1.3%
[4]; [6]
  EC50: > 33000 nM

## Clc1ccc([C@H](OCCCN2CCCC2)c2ccccc2)cc1 [38o]
[4]; [9]
  EC50: 80 nM
[5]; [10]
  EC50: 100 nM

## C[C@@H]1CCCN1CCOC(c1ccccc1)c1ccc(Cl)cc1 (stereo partly drawn) [38b]
[4]; read-out: L.mj EC50
  EC50: 2650 nM
[5]; read-out: L.amaz EC50
  EC50: 4100 nM
